Laboratory results from ChEMBL document CHEMBL3044556, “Managing weeds with drip-applied herbicides in tomato” (2008).

Legend:
Format in all cases: functional
Amaranthus dubius [1] = assay: Pre-emergence herbicidal activity against Amaranthus dubius in tomato field assessed as number of weeds at 4.56 kg/ha applied through drip lines/backpack-spray on week 3 to 4 before transplanting measured 12 weeks after treatment (reference value: 9 plants/m2)
Digitaria [2] = assay: Pre-emergence herbicidal activity against Digitaria spp. in tomato field assessed as number of weeds at 4.56 kg/ha applied through drip lines/backpack-spray on week 3 to 4 before transplanting measured 12 weeks after treatment (reference value: 9 plants/m2)
Corynandra viscosa [3] = assay: Pre-emergence herbicidal activity against Cleome viscosa in tomato field assessed as number of weeds at 4.56 kg/ha applied through drip lines/backpack-spray on week 3 to 4 before transplanting measured 12 weeks after treatment (reference value: 9 plants/m2)
Eleusine indica [4] = assay: Pre-emergence herbicidal activity against Eleusine indica in tomato field assessed as total fruit weight at 4.56 kg/ha applied through drip lines/backpack-spray on week 3 to 4 before transplanting (reference value: 13.7 t/ha); conditions: pooled result: one value given for 8 cell lines, strains, targets or settings
Trianthema [5] = assay: Pre-emergence herbicidal activity against Trianthema spp. in tomato field assessed as number of weeds at 4.56 kg/ha applied through drip lines/backpack-spray on week 3 to 4 before transplanting measured 12 weeks after treatment (reference value: 9 plants/m2)
Eleusine indica [6] = assay: Pre-emergence herbicidal activity against Eleusine indica in tomato field assessed as extra-large fruit weight at 4.56 kg/ha applied through drip lines/backpack-spray on week 3 to 4 before transplanting (reference value: 7.3 t/ha); conditions: pooled result: one value given for 8 cell lines, strains, targets or settings
Echinochloa colona [7] = assay: Pre-emergence herbicidal activity against Echinochloa colona in tomato field assessed as number of weeds at 4.56 kg/ha applied through drip lines/backpack-spray on week 3 to 4 before transplanting measured 12 weeks after treatment (reference value: 9 plants/m2)
Portulaca oleracea [8] = assay: Pre-emergence herbicidal activity against Portulaca oleracea in tomato field assessed as number of weeds at 4.56 kg/ha applied through drip lines/backpack-spray on week 3 to 4 before transplanting measured 12 weeks after treatment (reference value: 9 plants/m2)
Boerhavia erecta [9] = assay: Pre-emergence herbicidal activity against Boerhavia erecta in tomato field assessed as number of extra-large fruits at 4.56 kg/ha applied through drip lines/backpack-spray on week 3 to 4 before transplanting (reference value: 21.3 x 10 '3 ha); conditions: pooled result: one value given for 8 cell lines, strains, targets or settings
Cyperus [10] = assay: Pre-emergence herbicidal activity against Cyperus in tomato field assessed as number of weeds at 4.56 kg/ha applied through drip lines/backpack-spray on week 3 to 4 before transplanting measured 7 weeks after treatment (reference value: 3 plants/m2)
Eleusine indica [11] = assay: Pre-emergence herbicidal activity against Eleusine indica in tomato field assessed as total number of fruits at 4.56 kg/ha applied through drip lines/backpack-spray on week 3 to 4 before transplanting (reference value: 49.5 x 10 '3 ha); conditions: pooled result: one value given for 8 cell lines, strains, targets or settings
Cyperus [12] = assay: Pre-emergence herbicidal activity against Cyperus in tomato field assessed as number of weeds at 4.56 kg/ha applied through drip lines/backpack-spray on week 3 to 4 before transplanting measured 12 weeks after treatment (reference value: 5 plants/m2)
Eleusine indica [13] = assay: Pre-emergence herbicidal activity against Eleusine indica in tomato field assessed as number of weeds at 4.56 kg/ha applied through drip lines/backpack-spray on week 3 to 4 before transplanting measured 12 weeks after treatment (reference value: 9 plants/m2)
Poaceae [14] = assay: Pre-emergence herbicidal activity against Poaceae (grass family) in tomato field assessed as number of weeds at 4.56 kg/ha applied through drip lines/backpack-spray on week 3 to 4 before transplanting measured 7 weeks after treatment (reference value: 6 plants/m2)
Boerhavia erecta [15] = assay: Pre-emergence herbicidal activity against Boerhavia erecta in tomato field assessed as number of weeds at 4.56 kg/ha applied through drip lines/backpack-spray on week 3 to 4 before transplanting measured 12 weeks after treatment (reference value: 9 plants/m2)
Portulaca oleracea [16] = assay: Pre-emergence herbicidal activity against Portulaca oleracea in tomato field assessed as number of weeds at 4.56 kg/ha applied through drip lines/backpack-spray on week 3 to 4 before transplanting measured 7 weeks after treatment (reference value: 9 plants/m2); conditions: pooled result: one value given for 8 cell lines, strains, targets or settings
Poaceae [17] = assay: Pre-emergence herbicidal activity against Poaceae (grass family) in tomato field assessed as number of weeds at 4.56 kg/ha applied through drip lines/backpack-spray on week 3 to 4 before transplanting measured 12 weeks after treatment (reference value: 8 plants/m2)
Digitaria [18] = assay: Pre-emergence herbicidal activity against Digitaria spp. in tomato field assessed as number of weeds at 0.80 kg/ha applied through drip lines/backpack-spray on week 3 to 4 before transplanting measured 12 weeks after treatment (reference value: 9 plants/m2)
Digitaria [19] = assay: Pre-emergence herbicidal activity against Digitaria spp. in tomato field assessed as number of weeds at 0.80 kg/ha applied through drip lines/backpack-spray on week 3 to 4 before transplanting measured 7 weeks after treatment (reference value: 9 plants/m2)
Poaceae [20] = assay: Pre-emergence herbicidal activity against Poaceae (grass family) in tomato field assessed as number of weeds at 0.80 kg/ha applied through drip lines/backpack-spray on week 3 to 4 before transplanting measured 7 weeks after treatment (reference value: 6 plants/m2)
Corynandra viscosa [21] = assay: Pre-emergence herbicidal activity against Cleome viscosa in tomato field assessed as number of weeds at 0.80 kg/ha applied through drip lines/backpack-spray on week 3 to 4 before transplanting measured 12 weeks after treatment (reference value: 9 plants/m2)
Amaranthus dubius [22] = assay: Pre-emergence herbicidal activity against Amaranthus dubius in tomato field assessed as number of weeds at 0.80 kg/ha applied through drip lines/backpack-spray on week 3 to 4 before transplanting measured 12 weeks after treatment (reference value: 9 plants/m2)
Boerhavia erecta [23] = assay: Pre-emergence herbicidal activity against Boerhavia erecta in tomato field assessed as extra-large fruit weight at 0.80 kg/ha applied through drip lines/backpack-spray on week 3 to 4 before transplanting (reference value: 7.3 t/ha)
Eleusine indica [24] = assay: Pre-emergence herbicidal activity against Eleusine indica in tomato field assessed as total fruit weight at 0.80 kg/ha applied through drip lines/backpack-spray on week 3 to 4 before transplanting (reference value: 13.7 t/ha); conditions: pooled result: one value given for 8 cell lines, strains, targets or settings
Amaranthus dubius [25] = assay: Pre-emergence herbicidal activity against Amaranthus dubius in tomato field assessed as extra-large fruit weight at 0.80 kg/ha applied through drip lines/backpack-spray on week 3 to 4 before transplanting (reference value: 7.3 t/ha)
Trianthema [26] = assay: Pre-emergence herbicidal activity against Trianthema spp. in tomato field assessed as extra-large fruit weight at 0.80 kg/ha applied through drip lines/backpack-spray on week 3 to 4 before transplanting (reference value: 7.3 t/ha)
Echinochloa colona [27] = assay: Pre-emergence herbicidal activity against Echinochloa colona in tomato field assessed as number of weeds at 0.80 kg/ha applied through drip lines/backpack-spray on week 3 to 4 before transplanting measured 7 weeks after treatment (reference value: 9 plants/m2)
Poaceae [28] = assay: Pre-emergence herbicidal activity against Poaceae (grass family) in tomato field assessed as number of weeds at 0.80 kg/ha applied through drip lines/backpack-spray on week 3 to 4 before transplanting measured 12 weeks after treatment (reference value: 8 plants/m2)
Eleusine indica [29] = assay: Pre-emergence herbicidal activity against Eleusine indica in tomato field assessed as number of weeds at 0.80 kg/ha applied through drip lines/backpack-spray on week 3 to 4 before transplanting measured 12 weeks after treatment (reference value: 9 plants/m2)
Portulaca oleracea [30] = assay: Pre-emergence herbicidal activity against Portulaca oleracea in tomato field assessed as number of weeds at 0.80 kg/ha applied through drip lines/backpack-spray on week 3 to 4 before transplanting measured 12 weeks after treatment (reference value: 9 plants/m2)
Eleusine indica [31] = assay: Pre-emergence herbicidal activity against Eleusine indica in tomato field assessed as extra-large fruit weight at 0.80 kg/ha applied through drip lines/backpack-spray on week 3 to 4 before transplanting (reference value: 7.3 t/ha)
Eleusine indica [32] = assay: Pre-emergence herbicidal activity against Eleusine indica in tomato field assessed as number of weeds at 0.80 kg/ha applied through drip lines/backpack-spray on week 3 to 4 before transplanting measured 7 weeks after treatment (reference value: 9 plants/m2)
Cyperus [33] = assay: Pre-emergence herbicidal activity against Cyperus in tomato field assessed as number of weeds at 0.80 kg/ha applied through drip lines/backpack-spray on week 3 to 4 before transplanting measured 7 weeks after treatment (reference value: 3 plants/m2)
Eleusine indica [34] = assay: Pre-emergence herbicidal activity against Eleusine indica in tomato field assessed as number of extra-large fruits at 0.80 kg/ha applied through drip lines/backpack-spray on week 3 to 4 before transplanting (reference value: 21.3 x 10 '3 ha); conditions: pooled result: one value given for 8 cell lines, strains, targets or settings
Boerhavia erecta [35] = assay: Pre-emergence herbicidal activity against Boerhavia erecta in tomato field assessed as number of weeds at 0.80 kg/ha applied through drip lines/backpack-spray on week 3 to 4 before transplanting measured 12 weeks after treatment (reference value: 9 plants/m2)
Boerhavia erecta [36] = assay: Pre-emergence herbicidal activity against Boerhavia erecta in tomato field assessed as number of weeds at 0.80 kg/ha applied through drip lines/backpack-spray on week 3 to 4 before transplanting measured 7 weeks after treatment (reference value: 9 plants/m2)
Portulaca oleracea [37] = assay: Pre-emergence herbicidal activity against Portulaca oleracea in tomato field assessed as extra-large fruit weight at 0.80 kg/ha applied through drip lines/backpack-spray on week 3 to 4 before transplanting (reference value: 7.3 t/ha)
Amaranthus dubius [38] = assay: Pre-emergence herbicidal activity against Amaranthus dubius in tomato field assessed as number of weeds at 0.80 kg/ha applied through drip lines/backpack-spray on week 3 to 4 before transplanting measured 7 weeks after treatment (reference value: 9 plants/m2)
Digitaria [39] = assay: Pre-emergence herbicidal activity against Digitaria spp. in tomato field assessed as extra-large fruit weight at 0.80 kg/ha applied through drip lines/backpack-spray on week 3 to 4 before transplanting (reference value: 7.3 t/ha)
Eleusine indica [40] = assay: Pre-emergence herbicidal activity against Eleusine indica in tomato field assessed as total number of fruits at 0.80 kg/ha applied through drip lines/backpack-spray on week 3 to 4 before transplanting (reference value: 49.5 x 10 '3 ha); conditions: pooled result: one value given for 8 cell lines, strains, targets or settings
Trianthema [41] = assay: Pre-emergence herbicidal activity against Trianthema spp. in tomato field assessed as number of weeds at 0.80 kg/ha applied through drip lines/backpack-spray on week 3 to 4 before transplanting measured 7 weeks after treatment (reference value: 9 plants/m2)
Corynandra viscosa [42] = assay: Pre-emergence herbicidal activity against Cleome viscosa in tomato field assessed as extra-large fruit weight at 0.80 kg/ha applied through drip lines/backpack-spray on week 3 to 4 before transplanting (reference value: 7.3 t/ha)
Echinochloa colona [43] = assay: Pre-emergence herbicidal activity against Echinochloa colona in tomato field assessed as extra-large fruit weight at 0.80 kg/ha applied through drip lines/backpack-spray on week 3 to 4 before transplanting (reference value: 7.3 t/ha)
Echinochloa colona [44] = assay: Pre-emergence herbicidal activity against Echinochloa colona in tomato field assessed as number of weeds at 0.80 kg/ha applied through drip lines/backpack-spray on week 3 to 4 before transplanting measured 12 weeks after treatment (reference value: 9 plants/m2)
Corynandra viscosa [45] = assay: Pre-emergence herbicidal activity against Cleome viscosa in tomato field assessed as number of weeds at 0.80 kg/ha applied through drip lines/backpack-spray on week 3 to 4 before transplanting measured 7 weeks after treatment (reference value: 9 plants/m2)
Cyperus [46] = assay: Pre-emergence herbicidal activity against Cyperus in tomato field assessed as number of weeds at 0.80 kg/ha applied through drip lines/backpack-spray on week 3 to 4 before transplanting measured 12 weeks after treatment (reference value: 5 plants/m2)
Trianthema [47] = assay: Pre-emergence herbicidal activity against Trianthema spp. in tomato field assessed as number of weeds at 0.80 kg/ha applied through drip lines/backpack-spray on week 3 to 4 before transplanting measured 12 weeks after treatment (reference value: 9 plants/m2)
Portulaca oleracea [48] = assay: Pre-emergence herbicidal activity against Portulaca oleracea in tomato field assessed as number of weeds at 0.80 kg/ha applied through drip lines/backpack-spray on week 3 to 4 before transplanting measured 7 weeks after treatment (reference value: 9 plants/m2)

CCCCN(CC)C(=O)SCCC [PEBULATE]
Activity (Amaranthus dubius [1]): 8 /m2
Activity (Digitaria [2]): 8 /m2
Activity (Corynandra viscosa [3]): 8 /m2
Activity (Eleusine indica [4]): 15.3 tons/ha
Activity (Trianthema [5]): 8 /m2
Activity (Eleusine indica [6]): 8.4 tons/ha
Activity (Echinochloa colona [7]): 8 /m2
Activity (Portulaca oleracea [8]): 8 /m2
fruit count (Boerhavia erecta [9]): 24.5 10³ fruits/ha
Activity (Cyperus [10]): 4 /m2
fruit number (Eleusine indica [11]): 55 10^3 fruits/ha
Activity (Cyperus [12]): 6 /m2
Activity (Eleusine indica [13]): 8 /m2
Activity (Poaceae [14]): 4 /m2
Activity (Boerhavia erecta [15]): 8 /m2
Activity (Portulaca oleracea [16]): 14 /m2
Activity (Poaceae [17]): 5 /m2

CCCN(CCC)c1c([N+](=O)[O-])cc(C(F)(F)F)cc1[N+](=O)[O-] [TRIFLURALIN]
Activity (Digitaria [18]): 7 /m2
Activity (Digitaria [19]): 10 /m2
Activity (Poaceae [20]): 6 /m2
Activity (Corynandra viscosa [21]): 7 /m2
Activity (Amaranthus dubius [22]): 7 /m2
Activity (Boerhavia erecta [23]): 9.6 tons/ha
Activity (Eleusine indica [24]): 15.9 tons/ha
Activity (Amaranthus dubius [25]): 9.6 tons/ha
Activity (Trianthema [26]): 9.6 tons/ha
Activity (Echinochloa colona [27]): 10 /m2
Activity (Poaceae [28]): 5 /m2
Activity (Eleusine indica [29]): 7 /m2
Activity (Portulaca oleracea [30]): 7 /m2
Activity (Eleusine indica [31]): 9.6 tons/ha
Activity (Eleusine indica [32]): 10 /m2
Activity (Cyperus [33]): 5 /m2
fruit count (Eleusine indica [34]): 29.5 10^3 fruits/ha
Activity (Boerhavia erecta [35]): 7 /m2
Activity (Boerhavia erecta [36]): 10 /m2
Activity (Portulaca oleracea [37]): 9.6 tons/ha
Activity (Amaranthus dubius [38]): 10 /m2
Activity (Digitaria [39]): 9.6 tons/ha
fruit number (Eleusine indica [40]): 59.5 10^3 fruits/ha
Activity (Trianthema [41]): 10 /m2
Activity (Corynandra viscosa [42]): 9.6 tons/ha
Activity (Echinochloa colona [43]): 9.6 tons/ha
Activity (Echinochloa colona [44]): 7 /m2
Activity (Corynandra viscosa [45]): 10 /m2
Activity (Cyperus [46]): 8 /m2
Activity (Trianthema [47]): 7 /m2
Activity (Portulaca oleracea [48]): 10 /m2
